Laboratory results: PubChem BioAssay AID330 (DTP/NCI, 2004)
“And” between values parts separate entries of the source, which are not always exact repeats. Identical values can stand only once. Inconclusive results and toxic doses are left out. The calls were made as follows: active = survival T/C of 150% or more; inactive = T/C below 125% in these data. Square brackets hold non-standard residues; d marks the D form. Peptide text beside a SMILES is read from it. Hpg = N[CH](C(=O)O)c1ccc(O)cc1

Tested on: P388 leukemia ip, CD2F1 mice, survival T/C
Test: NCI In Vivo Anticancer Drug Screen. Data for tumor model P388 Leukemia (intraperitoneal) in CD2F1 (CDF1) mice
Settings: endpoint: median survival time, higher = longer survival
How it was run: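 Mice carrying the transplanted tumor received test compound or vehicle. Survival was recorded in each group, and the value is the treated-group measurement divided by that of the vehicle-treated control group.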

[1] = dose: 50.0 mg/kg/injection, schedule: Q01DX009 (ip), vehicle: Klucel (hydroxypropylcellulose) (HPC)
[2] = dose: 100.0 mg/kg/injection, schedule: Q01DX009 (ip), vehicle: Klucel (hydroxypropylcellulose) (HPC)
[3] = dose: 200.0 mg/kg/injection, schedule: Q01DX009 (ip), vehicle: Klucel (hydroxypropylcellulose) (HPC)
[4] = dose: 200.0 mg/kg/injection, schedule: Q01DX009 (ip), vehicle: saline
[5] = dose: 12.5 mg/kg/injection, schedule: Q01DX005 (ip), vehicle: Klucel (hydroxypropylcellulose) (HPC)
[6] = dose: 50.0 mg/kg/injection, schedule: Q01DX005 (ip), vehicle: Klucel (hydroxypropylcellulose) (HPC)
[7] = dose: 100.0 mg/kg/injection, schedule: Q01DX005 (ip), vehicle: Klucel (hydroxypropylcellulose) (HPC)
[8] = dose: 25.0 mg/kg/injection, schedule: Q01DX009 (ip), vehicle: saline with Tween-80
[9] = dose: 60.0 mg/kg/injection, schedule: Q01DX005 (ip), vehicle: saline with Tween-80
[10] = dose: 120.0 mg/kg/injection, schedule: Q01DX005 (ip), vehicle: saline with Tween-80
[11] = dose: 200.0 mg/kg/injection, schedule: Q01DX005 (ip), vehicle: Klucel (hydroxypropylcellulose) (HPC)
[12] = dose: 50.0 mg/kg/injection, schedule: Q01DX009 (ip), vehicle: saline with Tween-80
[13] = dose: 100.0 mg/kg/injection, schedule: Q01DX009 (ip), vehicle: saline with Tween-80
[14] = dose: 200.0 mg/kg/injection, schedule: Q01DX009 (ip), vehicle: saline with Tween-80
[15] = dose: 100.0 mg/kg/injection, schedule: Q04DX003 (ip), vehicle: Klucel (hydroxypropylcellulose) (HPC)
[16] = dose: 200.0 mg/kg/injection, schedule: Q04DX003 (ip), vehicle: Klucel (hydroxypropylcellulose) (HPC)
[17] = dose: 400.0 mg/kg/injection, schedule: Q04DX003 (ip), vehicle: Klucel (hydroxypropylcellulose) (HPC)
[18] = dose: 50.0 mg/kg/injection, schedule: Q01DX009 (ip), vehicle: saline
[19] = dose: 100.0 mg/kg/injection, schedule: Q01DX009 (ip), vehicle: saline
[20] = dose: 100.0 mg/kg/injection, schedule: Q04DX003 (ip), vehicle: saline

Measured: T/C

NC(CC(=O)O)C(=O)O (configuration not stated)
inactive: [1] 103 % of control and 105 % of control | [2] 105 % of control and 91 % of control | [3] 91 % of control | [4] 100 % of control | dose: 400.0 mg/kg/injection, schedule: Q01DX009 (ip), vehicle: saline 100 % of control | dose: 800.0 mg/kg/injection, schedule: Q01DX009 (ip), vehicle: saline 90 % of control

Nc1nc(Cl)c2[nH]c(Cl)nc2n1
inactive: [5] 104 % of control | dose: 25.0 mg/kg/injection, schedule: Q01DX005 (ip), vehicle: Klucel (hydroxypropylcellulose) (HPC) 102 % of control | [6] 100 % of control and 96 % of control | [7] 99 % of control

CCCCCCCCCCCCCCCC[n+]1cccc(C(=O)NCO)c1
inactive: dose: 6.25 mg/kg/injection, schedule: Q01DX009 (ip), vehicle: saline with Tween-80 100 % of control | dose: 12.5 mg/kg/injection, schedule: Q01DX009 (ip), vehicle: saline with Tween-80 104 % of control | [8] 104 % of control

Cc1ccc2cccc(CC(=O)NN)c2c1
inactive: [9] 104 % of control | [10] 97 % of control

CCC1(C)C(=O)SC(=S)N1C (configuration not stated)
inactive: [6] 101 % of control | [7] 97 % of control | [11] 103 % of control

CN(C)CCN1C(=O)C2C3CCC(C)(O3)C2C1=O (configuration not stated)
inactive: dose: 50.0 mg/kg/injection, schedule: Q01DX005 (ip), vehicle: saline 99 % of control | dose: 100.0 mg/kg/injection, schedule: Q01DX005 (ip), vehicle: saline 104 % of control | dose: 200.0 mg/kg/injection, schedule: Q01DX005 (ip), vehicle: saline 103 % of control

O=[N+]([O-])O.O=[N+]([O-])O.[Cu].c1cnc2c(c1)ccc1cccnc12
inactive: dose: 1.56 mg/kg/injection, schedule: Q04DX002 (ip), vehicle: saline 101 % of control | dose: 6.25 mg/kg/injection, schedule: Q04DX002 (ip), vehicle: saline 99 % of control and 106 % of control

Cc1ccc(C)c(CCNC=O)c1
inactive: [8] 100 % of control | [12] 110 % of control | [13] 98 % of control | [14] 103 % of control

C[N+](C)(Cc1cccc(Cl)c1)c1nnn[n-]1
inactive: [15] 98 % of control | [16] 101 % of control | [17] 107 % of control

Cc1ccc(S(=O)(=O)NCCN(C)C)cc1
inactive: [1] 99 % of control | [2] 99 % of control | [3] 102 % of control | dose: 400.0 mg/kg/injection, schedule: Q01DX009 (ip), vehicle: Klucel (hydroxypropylcellulose) (HPC) 101 % of control

O=C1CNC(=O)CN1
inactive: [18] 96 % of control | [19] 90 % of control | [20] 100 % of control | [4] 97 % of control | dose: 200.0 mg/kg/injection, schedule: Q04DX003 (ip), vehicle: saline 91 % of control | dose: 400.0 mg/kg/injection, schedule: Q04DX003 (ip), vehicle: saline 100 % of control

CC(=O)NS(=O)(=O)c1ccc(N=Nc2c(O)n(-c3ccccc3)n(-c3ccccc3)c2=O)cc1
inactive: [1] 88 % of control | [2] 101 % of control | [3] 109 % of control

[O-][N+](CCO)(CCO)c1ncnc2nc[nH]c12
inactive: dose: 50.0 mg/kg/injection, schedule: Q01DX005 (ip), vehicle: suspension in saline 102 % of control | dose: 100.0 mg/kg/injection, schedule: Q01DX005 (ip), vehicle: suspension in saline 106 % of control | dose: 200.0 mg/kg/injection, schedule: Q01DX005 (ip), vehicle: suspension in saline 102 % of control

Clc1ccccc1CN1COc2c(ccc3ccccc23)C1
inactive: [15] 95 % of control | [16] 100 % of control | [17] 104 % of control

CSc1nc(N)c(NS(=O)(=O)c2cccc([N+](=O)[O-])c2)c(=O)[nH]1
inactive: dose: 60.0 mg/kg/injection, schedule: Q01DX005 (ip), vehicle: Klucel (hydroxypropylcellulose) (HPC) 92 % of control | dose: 120.0 mg/kg/injection, schedule: Q01DX005 (ip), vehicle: Klucel (hydroxypropylcellulose) (HPC) 94 % of control | dose: 240.0 mg/kg/injection, schedule: Q01DX005 (ip), vehicle: Klucel (hydroxypropylcellulose) (HPC) 88 % of control

CC(=O)OCC1(OC(=O)CC(C)C)COC(O)C2C(C=O)=CC=C21 (configuration not stated)
inactive: dose: 3.12 mg/kg/injection, schedule: Q01DX005 (ip), vehicle: Klucel (hydroxypropylcellulose) (HPC) 102 % of control | dose: 6.25 mg/kg/injection, schedule: Q01DX005 (ip), vehicle: Klucel (hydroxypropylcellulose) (HPC) 100 % of control | [5] 101 % of control

C/C(=N\NC(=S)N1CC(C)OC(C)C1)c1cnccn1 (configuration not stated)
inactive: dose: 12.5 mg/kg/injection, schedule: Q01DX005 (ip), vehicle: saline with Tween-80 107 % of control | dose: 25.0 mg/kg/injection, schedule: Q01DX005 (ip), vehicle: saline with Tween-80 100 % of control | dose: 50.0 mg/kg/injection, schedule: Q01DX005 (ip), vehicle: saline with Tween-80 101 % of control and 97 % of control

CCCCN(Cc1ccccc1)CC(O)CN=Cc1ccc(C=NCC(O)CN(CCCC)Cc2ccccc2)cc1 (configuration not stated)
inactive: dose: 50.0 mg/kg/injection, schedule: Q01DX005 (ip), vehicle: saline + Tween-80 + alcohol 102 % of control | dose: 100.0 mg/kg/injection, schedule: Q01DX005 (ip), vehicle: saline + Tween-80 + alcohol 107 % of control | dose: 200.0 mg/kg/injection, schedule: Q01DX005 (ip), vehicle: saline + Tween-80 + alcohol 98 % of control

CSc1ccc(SC)c2c1C(=O)c1c(SC)ccc(SC)c1C2=O
inactive: [12] 93 % of control | [13] 96 % of control

Cc1ccc2c(c1)CCCN2C=O
inactive: dose: 50.0 mg/kg/injection, schedule: Q04DX003 (ip), vehicle: saline with Tween-80 105 % of control | dose: 100.0 mg/kg/injection, schedule: Q04DX003 (ip), vehicle: saline with Tween-80 100 % of control | dose: 200.0 mg/kg/injection, schedule: Q04DX003 (ip), vehicle: saline with Tween-80 110 % of control

O=C(/N=C1\N=Nc2nc(C3(c4nc5n(c4O)/C(=N/C(=O)Nc4ccc(Cl)cc4)N=N5)CCCC3=O)c(O)n21)Nc1ccc(Cl)cc1 (configuration not stated)
inactive: [9] 91 % of control | [10] 86 % of control

CC(C)CC(N)C(=O)NC(C(=O)O)c1ccc(O)cc1 (configuration not stated) (H-Leu-[Hpg]-OH; configuration not given here)
inactive: [12] 103 % of control | [13] 101 % of control | [14] 102 % of control

C[N+](C)(C)C.[CH-]1CCCCC1.[CH-]1CCCCC1.[CH-]1CCCCC1.[Cl-].[Cl-].[Sn+4]
inactive: dose: 3.12 mg/kg/injection, schedule: Q01DX005 (ip), vehicle: saline with Tween-80 108 % of control | dose: 6.25 mg/kg/injection, schedule: Q01DX005 (ip), vehicle: saline with Tween-80 101 % of control

CCOC(=O)C(CC(=O)O)=C(c1ccccc1)c1ccccc1
inactive: [18] 107 % of control | [19] 100 % of control | [4] 107 % of control

O=c1cc(-c2ccccc2)oc2c1CCCC2
inactive: [6] 101 % of control | [7] 97 % of control | [11] 101 % of control

COc1ccc(C(=O)NC[n+]2ccccc2)cc1
inactive: dose: 25.0 mg/kg/injection, schedule: Q04DX003 (ip), vehicle: saline 100 % of control | dose: 50.0 mg/kg/injection, schedule: Q04DX003 (ip), vehicle: saline 100 % of control | [20] 104 % of control

O=C(O)C1CCCN1C(=O)c1ccc(Cl)cc1 (configuration not stated)
inactive: dose: 12.5 mg/kg/injection, schedule: Q01DX005 (ip), vehicle: distilled water + Tween-80 99 % of control | dose: 25.0 mg/kg/injection, schedule: Q01DX005 (ip), vehicle: distilled water + Tween-80 101 % of control | dose: 50.0 mg/kg/injection, schedule: Q01DX005 (ip), vehicle: distilled water + Tween-80 97 % of control | dose: 100.0 mg/kg/injection, schedule: Q01DX005 (ip), vehicle: distilled water + Tween-80 100 % of control | dose: 200.0 mg/kg/injection, schedule: Q01DX005 (ip), vehicle: distilled water + Tween-80 104 % of control

COc1ccc(N=Nc2c(C)nn(C(=O)c3ccncc3)c2C)cc1
inactive: [1] 108 % of control | [2] 99 % of control | [3] 101 % of control

CCOC(=O)C1=C(C(=O)c2ccccc2)C(c2ccc(Cl)cc2Cl)C(C(=O)c2ccccc2)=C(C(=O)OCC)N1
inactive: [9] 93 % of control | [10] 90 % of control
